The numbers were not newly measured in patent US20250122241A1, “CYCLIC PEPTIDE IMMUNOMODULATORS” (BRISTOL-MYERS SQUIBB COMPANY, priority 2021, published 2025), which cites them from elsewhere.

The structures appear in SMILES notation.

For this data set the following is noted: oral administration; extensive first-pass metabolism in the liver.

As to `CCCC1O[C@@H]2C[C@H]3[C@@H]4CCC5=CC(=O)C=C[C@]5(C)[C@H]4[C@@H](O)C[C@]3(C)[C@]2(C(=O)CO)O1` (stereo partly shown) [budesonide], the bioavailability result is given as “about 10%”.
